According to ChEMBL document CHEMBL5346873, “Strategic modification of low-activity natural antimicrobial peptides confers antibacterial potential in vitro and in vivo” (Eur J Med Chem, 2023):
Calls of active or inactive are those of the source. The calls are words filed in the database; no cut-off is given here.

Experiments:
Pseudomonas aeruginosa [1] = test: Additive antibacterial activity against Pseudomonas aeruginosa assessed as doxycycline MIC by checkerboard microtiter plate assay; type: functional
Vibrio vulnificus [2] = test: Antibacterial activity against Vibrio vulnificus infected in BALB/c mouse wound infection model assessed as reduction in wound infection rate at 6.25 ug per animal administered 12 hrs post infection and measured for 14 days; type: functional, organism-based; conditions: dose 6.25 µg, time 14.0 day
Escherichia coli [3] = test: Additive antibacterial activity against Escherichia coli in presence of doxycycline by checkerboard microtiter plate assay; type: functional
Escherichia coli [4] = test: Additive antibacterial activity against Escherichia coli assessed as doxycycline MIC by checkerboard microtiter plate assay; type: functional
Klebsiella pneumoniae [5] = test: Synergistic antibacterial activity against Klebsiella pneumoniae expressing NDM1 assessed as meropenem MIC by checkerboard microtiter plate assay; type: functional
[6] = Cytotoxicity against human HaCaT cells incubated for 24 hrs by MTS assay; type: toxicity, cell-based; conditions: read-out: LD50
Vibrio vulnificus [7] = test: Antibacterial activity against Vibrio vulnificus infected in BALB/c mouse wound infection model assessed as survival at 6.25 ug per animal administered 12 hrs post infection and measured for 14 days; type: functional; conditions: dose 6.25 µg; time 14 day
Pseudomonas aeruginosa [8] = test: Additive antibacterial activity against Pseudomonas aeruginosa in presence of doxycycline by checkerboard microtiter plate assay; type: functional
Vibrio vulnificus [9] = test: Antibiofilm activity against Vibrio vulnificus V2 assessed as inhibition of biofilm formation at 25 to 100 ug/ml incubated for 24 hrs by crystal violet staining based assay; type: functional, organism-based; conditions: dose 25-100 µg/ml
Vibrio vulnificus [10] = test: Bactericidal activity against Vibrio vulnificus 204 at MIC after 5 mins; type: functional, organism-based
Klebsiella aerogenes [11] = test: Additive antibacterial activity against Enterobacter aerogenes in presence of doxycycline by checkerboard microtiter plate assay; type: functional
Streptococcus iniae = test: Antibacterial activity against Streptococcus iniae in presence of human serum; type: functional, organism-based
Escherichia coli [12] = test: Additive antibacterial activity against Escherichia coli assessed as fractional inhibitory concentration in presence of doxycycline by checkerboard microtiter plate assay; type: functional
Klebsiella aerogenes [13] = test: Additive antibacterial activity against Enterobacter aerogenes assessed as doxycycline MIC by checkerboard microtiter plate assay; type: functional
Klebsiella aerogenes [14] = test: Additive antibacterial activity against Enterobacter aerogenes assessed as fractional inhibitory concentration in presence of doxycycline by checkerboard microtiter plate assay; type: functional
Vibrio vulnificus [15] = test: Antibacterial activity against Vibrio vulnificus infected in BALB/c mouse wound infection model assessed as reduction in bacterial infection at 6.25 ug per animal administered 12 hrs post infection and measured for 14 days; type: functional, organism-based; conditions: dose 6.25 µg, time 14.0 day
Pseudomonas aeruginosa [16] = test: Additive antibacterial activity against Pseudomonas aeruginosa assessed as fractional inhibitory concentration in presence of doxycycline by checkerboard microtiter plate assay; type: functional
Klebsiella pneumoniae [17] = test: Synergistic antibacterial activity against Klebsiella pneumoniae expressing NDM1 assessed as fractional inhibitory concentration in presence of meropenem by checkerboard microtiter plate assay; type: functional
Klebsiella pneumoniae [18] = test: Synergistic antibacterial activity against Klebsiella pneumoniae expressing NDM1 in presence of meropenem by checkerboard microtiter plate assay; type: functional
Escherichia coli [19] = test: Synergistic antibacterial activity against Escherichia coli assessed as fractional inhibitory concentration in presence of doxycycline; type: functional
Vibrio vulnificus [20] = test: Bactericidal activity against Vibrio vulnificus 204 at MIC after 30 mins; type: functional; conditions: 0.5 h
Klebsiella aerogenes [21] = test: Antibacterial activity against Enterobacter aerogenes assessed as fractional inhibitory concentration; type: functional
Vibrio vulnificus [22] = test: Antibacterial activity against Vibrio vulnificus infected in BALB/c mouse wound infection model assessed as reduction in wound infection rate at 12.5 ug per animal administered 12 hrs post infection and measured for 14 days; type: functional, organism-based; conditions: dose 12.5 µg, time 14.0 day
Escherichia coli [23] = test: Synergistic antibacterial activity against Escherichia coli assessed as doxycycline MIC; type: functional
Klebsiella pneumoniae [24] = test: Additive antibacterial activity against Klebsiella pneumoniae expressing NDM1 assessed as fractional inhibitory concentration in presence of meropenem; type: functional
Klebsiella aerogenes [25] = test: Antibacterial activity against Enterobacter aerogenes in presence of doxycycline; type: functional
Klebsiella pneumoniae [26] = test: Additive antibacterial activity against Klebsiella pneumoniae expressing NDM1 assessed as meropenem MIC; type: functional
Escherichia coli [27] = test: Synergistic antibacterial activity against Escherichia coli in presence of doxycycline; type: functional
Pseudomonas aeruginosa [28] = test: Antibacterial activity against Pseudomonas aeruginosa assessed as fractional inhibitory concentration in presence of doxycycline; type: functional
Klebsiella pneumoniae [29] = test: Additive antibacterial activity against Klebsiella pneumoniae expressing NDM1 in presence of meropenem; type: functional
Pseudomonas aeruginosa [30] = test: Antibacterial activity against Pseudomonas aeruginosa assessed as doxycycline MIC; type: functional
Pseudomonas aeruginosa [31] = test: Antibacterial activity against Pseudomonas aeruginosa in presence of doxycycline; type: functional
Vibrio vulnificus [32] = test: Antibacterial activity against Vibrio vulnificus infected in BALB/c mouse wound infection model assessed as reduction in bacterial infection at 12.5 ug per animal administered 12 hrs post infection and measured for 14 days; type: functional, organism-based; conditions: dose 12.5 µg, time 14.0 day
Klebsiella aerogenes [33] = test: Antibacterial activity against Enterobacter aerogenes assessed as doxycycline MIC; type: functional
Vibrio vulnificus [34] = test: Antibacterial activity against Vibrio vulnificus infected in BALB/c mouse wound infection model assessed as survival at 12.5 ug per animal administered 12 hrs post infection and measured for 14 days; type: functional; conditions: dose 12.5 µg; time 14 day

Substance: H-FKWKSVLKGVKGFVKGYF-OH
- MIC (Pseudomonas aeruginosa [1]): 6.25 µg/mL
- Activity (Vibrio vulnificus [2]): inactive
- MIC (Escherichia coli [3]): 3.12 µg/mL
- MIC (Escherichia coli [4]): 0.024 µg/mL
- MIC (Klebsiella pneumoniae [5]): 3.12 µg/mL
- CC50 at 24 h [6]: > 100 µg/mL
- Activity (Vibrio vulnificus [7]): 20%
- MIC (Pseudomonas aeruginosa [8]): 12.5 µg/mL
- Activity (Vibrio vulnificus [9]): Active
- Activity (Vibrio vulnificus [10]): Active
- MIC (Klebsiella aerogenes [11]): 6.25 µg/mL
- Activity (Streptococcus iniae): Active
- FIC (Escherichia coli [12]): 0.53
- MIC (Klebsiella aerogenes [13]): 0.78 µg/mL
- FIC (Klebsiella aerogenes [14]): 1
- Activity (Vibrio vulnificus [15]): Active
- FIC (Pseudomonas aeruginosa [16]): 1
- FIC (Klebsiella pneumoniae [17]): 0.26
- MIC (Klebsiella pneumoniae [18]): 6.25 µg/mL

Substance: H-KKCIAKAILKKAKKLLKKLVNP-OH
- FIC (Escherichia coli [19]): 0.5
- Activity (Vibrio vulnificus [20]): 100%
- FIC (Klebsiella aerogenes [21]): 1.03
- CC50 at 24 h [6]: > 100 µg/mL
- Activity (Vibrio vulnificus [22]): inactive
- Activity (Vibrio vulnificus [9]): Active
- MIC (Escherichia coli [23]): 0.195 µg/mL
- FIC (Klebsiella pneumoniae [24]): 0.51
- MIC (Klebsiella aerogenes [25]): 6.25 µg/mL
- MIC (Klebsiella pneumoniae [26]): 3.12 µg/mL
- MIC (Escherichia coli [27]): 6.25 µg/mL
- FIC (Pseudomonas aeruginosa [28]): 1.12
- MIC (Klebsiella pneumoniae [29]): 12.5 µg/mL
- MIC (Pseudomonas aeruginosa [30]): 1.56 µg/mL
- MIC (Pseudomonas aeruginosa [31]): 25 µg/mL
- Activity (Vibrio vulnificus [32]): Active
- MIC (Klebsiella aerogenes [33]): 0.048 µg/mL
- Activity (Vibrio vulnificus [34]): 80%
